# Source: PubChem BioAssay (NCI)
# “And” between values parts separate entries of the source, which are not always exact repeats. Equal values may be shown once.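 Five compound concentrations were applied to cells in 96-well plates for 48 hours; endpoints were derived by simple linear interpolation of the resulting dose-response curve. GI50 = concentration required for 50% inhibition of growth. The concentration for full growth arrest is given as TGI.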
# Tests used:
# Assay in all cases: DTP human tumour cell line panel, 48 h
# SF-268 CNS = tested on: SF-268 CNS
# HT29 colon = tested on: HT29 colon
# DLD-1 colon = tested on: DLD-1 colon
# OVCAR-5 ovarian = tested on: OVCAR-5 ovarian
# CCRF-CEM leukemia = tested on: CCRF-CEM leukemia
# KM20L2 colon = tested on: KM20L2 colon
# OVCAR-8 ovarian = tested on: OVCAR-8 ovarian
# MALME-3M melanoma = tested on: MALME-3M melanoma
# 786-0 renal = tested on: 786-0 renal
# BT-549 breast = tested on: BT-549 breast
SMILES,TGI (SF-268 CNS) [µM],TGI (HT29 colon),TGI (DLD-1 colon) [µM],TGI (OVCAR-5 ovarian) [µM],TGI (CCRF-CEM leukemia),TGI (KM20L2 colon) [µM],TGI (OVCAR-8 ovarian) [µM],TGI (MALME-3M melanoma),TGI (786-0 renal),GI50 (SF-268 CNS) [µM],GI50 (HT29 colon),GI50 (OVCAR-5 ovarian) [µM],GI50 (CCRF-CEM leukemia),GI50 (OVCAR-8 ovarian),GI50 (MALME-3M melanoma),GI50 (786-0 renal),GI50 (BT-549 breast),TGI (BT-549 breast)
CCc1cccc(C)c1NC(=O)CCc1nnc2s/c(=C\c3cccc4ccccc34)c(=O)n12,> 100,> 100 µM,> 100,> 100,> 100 µM,> 100,> 100,> 100 µM,> 100 µM,,,,,,,,,
O=C(O)c1cc(=O)c2c([nH]c3ccccc32)s1,> 100,,> 100,> 100,> 100 µM,> 100,> 100,> 100 µM,> 100 µM,,,,,,,,,
Cc1c(C(=O)/C=C/C=C/c2ccccc2)[n+](=O)c2ccccc2n1[O-],> 100,,29,> 100,> 100 µM,> 100,> 100,66.8 µM,52.7 µM,,,,,,,,,
Cl/C(N=Nc1ccccc1)=N/Nc1ccccc1,> 100,> 100 µM,,> 100,> 100 µM,> 100,> 100,> 100 µM,> 100 µM,,,,,,,,,
CCOC(=O)CN(Cn1cncn1)Cn1cncn1,,> 100 µM,> 100,> 100,> 100 µM,51.7,58.8,> 100 µM,> 100 µM,,,,,,,,,
C[Si](C)(C)C(CCCCSc1ccccc1)(Sc1ccccc1)Sc1ccccc1,> 100,,> 100,,> 100 µM,,> 100,,> 100 µM,,,,,,,,,
COC(=O)C1C(=O)CC2CCCCC21 (stereo not given),> 100,,> 100,,> 100 µM,> 100,,> 100 µM,> 100 µM,,,,,,,,,
CCn1c(-c2cc3c([nH]c4ccccc43)c(-c3cccc(O)c3)n2)n[nH]c1=S,17.4,6.97 µM,,32.9,12.4 µM,,31,11.4 µM,6.31 µM,4.04,2.74 µM,6.34,2.93 µM,3.96 µM,2.56 µM,2.29 µM,3.51 µM,25.9 µM
COC(=O)C12CC(NC(=O)c3csc([C@@H](C[C@H](C(C)C)N(C)C(=O)[C@@H](NC(=O)[C@H]4CCCCN4C)C4CC4)OC(C)=O)n3)(C1)C2,> 16.7,> 16.7 µM,,> 16.7,> 8.79 µM,,> 16.7,> 16.7 µM,> 16.7 µM,0.023,0.0134 µM,0.135,0.00613 µM,0.0501 µM,0.0357 µM,0.0394 µM,0.00766 µM,2.72 µM
Cc1nc2ccc(Br)cc2c(=O)n1-c1ccc(NC2OCC(O)C(O)C2O)cc1 (stereo not given),> 100,48.7 µM and > 100 µM,,> 100,38 µM and > 100 µM,,> 100,65 µM and > 100 µM,42.2 µM and > 100 µM,,20.7 µM and > 100 µM,,3.8 µM and 34.9 µM,43.5 µM and > 100 µM,23.2 µM and > 100 µM,19.1 µM and > 100 µM,24.2 µM and 99.5 µM,53.9 µM and > 100 µM
C#CCNC(=S)N/N=C(\C)c1ccccn1,> 100,> 100 µM,,> 100,> 100 µM,,> 100,> 100 µM,> 100 µM,0.517,0.234 µM,0.885,0.0677 µM,0.284 µM,1.51 µM,0.354 µM,0.618 µM,> 100 µM
O=C1C2=C(C(=O)c3cnccc31)C1C=CC2CC1 (stereo not given),3.84,5.7 µM,,3.71,,,2.09,4.45 µM,3.37 µM,1.9,2.58 µM,1.93,0.66 µM,0.715 µM,2.12 µM,1.95 µM,5.86 µM,10.3 µM
O=C(O)/C=C\C(=O)Nc1ccccn1,> 100,> 100 µM,,> 100,> 100 µM,,> 100,> 100 µM,> 100 µM,,,,,,,,,> 100 µM
Cc1ncc(C(=O)Nc2ccc(CN3CCN(C)CC3)c(C(F)(F)F)c2)cc1C#Cc1ccc(N)nc1,1.43,1.16 µM,,5.3,12.3 µM,,5.03,0.379 µM,4.3 µM,0.258,0.129 µM,0.412,0.598 µM,0.489 µM,0.0868 µM,0.733 µM,1.2 µM,4.09 µM
Cn1c(=O)c2[nH]c(SCCN3CCOCC3)nc2n(C)c1=S,> 100,> 100 µM,,> 100,> 100 µM,,> 100,> 100 µM,> 100 µM,,,,,,,,,> 100 µM
C=C/C(C)=C/C[C@]1(C)[C@H](C)[C@@H](OC(=O)CCC)[C@H](O)[C@@]23C(=C[C@H](OC)C[C@@H]12)[C@@H](OC(=O)CCC)O[C@H]3OC(C)=O,3.25,1.42 µM,,2.54,1.66 µM,,2.42,1.03 µM,0.888 µM,1.58,0.343 µM,0.576,0.382 µM,0.447 µM,0.313 µM,0.287 µM,1.11 µM,2.75 µM
C1=C/COCc2cc(ccc2OCCN2CCCC2)Nc2nccc(n2)-c2ccc(o2)COC/1,4.45,7.33 µM,,3.8,7.2 µM,,18.8,3.69 µM,13 µM,1.69,1.33 µM,0.716,2.06 µM,2.59 µM,1.4 µM,2.71 µM,2.18 µM,4.95 µM
CN(C)c1ccc(/C=C2\N=C(c3ccccc3)N(c3cc(C(F)(F)F)ccc3Cl)C2=O)cc1,> 100,> 100 µM,,> 100,> 100 µM,,> 100,> 100 µM,> 100 µM,> 100,> 100 µM,> 100,> 100 µM,> 100 µM,> 100 µM,> 100 µM,> 100 µM,> 100 µM
CCN(Cc1cc(F)ccc1F)c1ccc(CO)c(Cl)c1,40.6,17.7 µM,,0.228,91.5 µM,,36.2,27.2 µM,26.9 µM,17.3,4.1 µM,0.0502,22.5 µM,13 µM,13.3 µM,11.8 µM,15.4 µM,30.8 µM
